# Laboratory results published in ChEMBL document CHEMBL5729195, “Heterocyclic compounds useful as aurora a selective inhibitors” (2022).
# Target: T1, Aurora kinase A (Homo sapiens, UniProt O14965)
# T1 sequence (O14965 whole entry): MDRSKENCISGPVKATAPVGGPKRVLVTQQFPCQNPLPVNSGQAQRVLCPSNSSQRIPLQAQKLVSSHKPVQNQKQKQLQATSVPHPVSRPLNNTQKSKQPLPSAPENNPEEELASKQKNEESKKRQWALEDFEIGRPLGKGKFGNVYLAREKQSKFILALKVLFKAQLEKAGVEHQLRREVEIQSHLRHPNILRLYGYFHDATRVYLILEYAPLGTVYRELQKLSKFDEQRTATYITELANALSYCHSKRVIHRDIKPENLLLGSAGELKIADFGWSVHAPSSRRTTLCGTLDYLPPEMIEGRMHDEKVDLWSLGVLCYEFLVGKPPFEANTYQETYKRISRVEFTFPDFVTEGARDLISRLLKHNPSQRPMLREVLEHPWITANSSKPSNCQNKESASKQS
# Experiment: The testing compound was diluted up to 100× final concentration in a 384-well plate. Transfer 250 nL of the compound dilution to a 384-well assay plate using Echo 550.
structure (smiles),measurement,value
Cc1cc(Nc2cc(F)cc(C[C@@]3(C(=O)O)CCN(Cc4cccc(Cl)c4F)[C@H](C)C3)n2)n[nH]1,IC50,1.1 nM
